According to patent US20120202787A1, “Novel Heteroaryl Imidazoles And Heteroaryl Triazoles As Gamma-Secretase Modulators” (Pfizer Inc., priority 2009, published 2012):

Tested on: γ-secretase (production of amyloid beta protein Aβ (1-42))
Experiment: Cell-based γ-secretase assay with ELISA readout (Aβ (1-42) production)
Parameters: species or system human WT-APP overexpressing CHO cells
Conditions: Geometric mean of at least 2 determinations; Table 3; read-out: Aβ 42 IC50 (μM)*
Procedure: Cell-Based γ-Secretase Assay with ELISA Readout
The ability of compounds to modulate production of amyloid beta protein Aβ (1-42) was determined using human WT-APP overexpressing CHO cells. Cells were plated at 22,000 cells/100 μL well in 96 well tissue culture treated, clear plates (Falcon) in DMEM/F12 based medium and incubated for 24 hours at 37° C. Compounds for testing were diluted in 100% DMSO to achieve an eleven points, half log, dose response for IC50 determinations. Compounds were added in fresh medium to achieve 1% final DMSO. Appropriate vehicle and inhibitor controls were added to obtain maximum and minimum inhibition values for the assay before the plates were incubated for about 24 hours at 37° C.
Coating of ELISA assay plates was initiated by addition of 50 μL/well of an in-house Aβ (1-42) specific antibody at (4 μg/mL) in 0.1 M NaHCO3 (pH 9.0) into black 384-well Maxisorp® plates (Nunc) and incubated overnight at 4° C. The capture antibody was then aspirated from the ELISA assay plates and 100 μL/well of Blocking Buffer (Dulbecco's PBS, 1.5% BSA (Sigma A7030)) added. Ambient temperature incubation was allowed to proceed for a minimum of two hours before washing 2×100 μL with Wash Buffer (Dulbecco's PBS, 0.05% Tween 20). Assay Buffer (Dulbecco's PBS, 1.0% BSA (Sigma A7030), 0.05% Tween 20) 20 μL/well was then added.
After incubation overnight at 37° C., 5% CO2, 40 μL (in duplicate) of experimental conditioned media were transferred into wells of the blocked ELISA plates containing the capture antibody, followed by overnight incubation at 4° C. Cell toxicity was measured in the corresponding cells after removal of the media for the Aβ (1-42) assay by a colorimetric cell proliferation assay (CellTiter 96® AQueous One Solution Cell Proliferation Assay, Promega) according to the manufacturer's instructions.
After overnight incubation of the ELISA assay plates at 4° C., unbound Aβ peptides were removed thorough (4×100 μL) washes with Wash Buffer. Europium (Eu) labeled (custom labeled, Perkin Elmer) Aβ (1-16) 6e10 Monoclonal Antibody (Covance #SIG-39320 was added, (50 μL /well Eu-6e10 @ 1:5000, 20 uM EDTA) in Assay Buffer. Incubation at ambient temperature for a minimum of 2 hours was followed by (4×100 μL) washes with Wash Buffer, before 50 μL/well of Delfia Enhancement Solution (Perkin Elmer) was added. Following a one hour ambient temperature incubation, the plates were read on an EnVision plate reader (Perkin Elmer) using standard DELFIA TRF settings. Data analysis including inhibitory IC50 determination was performed using nonlinear regression fit analysis (in-house software) and the appropriate plate mean values for the maximum and minimum inhibition controls.

IC50 [µM]	Structure (SMILES)
0.096	COc1nc(C(=O)N2CC(COc3cccc4ccccc34)C2)ccc1-n1cnc(C)c1 [Example 48, 2-methoxy-3-(4-methyl-1H-imidazol-1-yl)-6-({3-[(1-naphthyloxy)methyl]azetidin-1-yl}carbonyl) pyridine]
0.194	COc1nc(C(=O)NC2COc3ccc(Cl)c(F)c32)ccc1-n1cnc(C)c1 (centres unmarked) [Example 49, N-[5-chloro-4-fluoro-2,3-dihydro-1-benzofuran-3-yl]-6-methoxy-5-(4-methyl-1H-imidazol-1-yl)pyridine-2-carboxamide]
0.2	COc1nc(C(=O)NC2COc3cc(C)c(Cl)cc32)ccc1-n1cnc(C)c1 (centres unmarked) [Example 50, N-[5-chloro-6-methyl-2,3-dihydro-1-benzofuran-3-yl]-6-methoxy-5-(4-methyl-1H-imidazol-1-yl)pyridine-2-carboxamide]
0.234	COc1nc(C(=O)NC2COc3ccc(Cl)c(C)c32)ccc1-n1cnc(C)c1 (centres unmarked) [Example 51, N-(5-chloro-4-methyl-2,3-dihydro-1-benzofuran-3-yl)-6-methoxy-5-(4-methyl-1H-imidazol-1-yl)pyridine-2-carboxamide]
0.364	COc1nc(C(=O)NC2COc3c(C)cc(Cl)cc32)ccc1-n1cnc(C)c1 (centres unmarked) [Example 52, N-(5-chloro-7-methyl-2,3-dihydro-1-benzofuran-3-yl)-6-methoxy-5-(4-methyl-1H-imidazol-1-yl)pyridine-2-carboxamide]
0.373	COc1nc(C(=O)N[C@H]2COc3ccc(Cl)cc32)ccc1-n1cnc(C)c1 [Example 53, N-[(3R)-5-chloro-2,3-dihydro-1-benzofuran-3-yl]-6-methoxy-5-(4-methyl-1H-imidazol-1-yl)pyridine-2-carboxamide]
0.411	COc1nc(C(=O)NC2COc3ccc(C(F)(F)F)c(F)c32)ccc1-n1cnc(C)c1 (centres unmarked) [Example 54, N-[4-fluoro-5-(trifluoromethyl)-2,3-dihydro-1-benzofuran-3-yl]-6-methoxy-5-(4-methyl-1H-imidazol-1-yl)pyridine-2-carboxamide]
0.423	COc1nc(C(=O)NC2COc3cc(F)c(Cl)cc32)ccc1-n1cnc(C)c1 (centres unmarked) [Example 55, N-[5-chloro-6-fluoro-2,3-dihydro-1-benzofuran-3-yl]-6-methoxy-5-(4-methyl-1H-imidazol-1-yl)pyridine-2-carboxamide]

Structure (SMILES)	IC50 [µM]
COc1nc(C(=O)NC2COc3ccc(C(F)(F)F)cc32)ccc1-n1cnc(C)c1 (centres unmarked) [Example 56, 6-methoxy-5-(4-methy-1H-imidazol-1-yl)-N-[5-(trifluoromethyl)-2,3-dihydro-1-benzofuran-3-yl]pyridine-2-carboxamide]	0.478

Same assay, conditions: human WT-APP overexpressing CHO cells; Aβ (1-42) ELISA; about 24 hours at 37° C.; free base or salt; read-out: Aβ 42B IC50 (μM) (Geometric Mean of 2-8 Determinations)

IC50 [µM]	Structure (SMILES)
1.01	COc1nc(C(=O)NCc2ccc(OC(F)(F)F)cc2)ccc1-n1cnc(C)c1 [Example 31, 6-methoxy-5-(4-methyl-1H-imidazol-1-yl)-N-[4-(trifluoromethoxy)benzyl]-pyridine-2-carboxamide]
2.01	COc1nc(C(=O)NC(C)(C)c2ccc(F)cc2)ccc1-n1cnc(C)c1 [Example 32, N-[1-(4-fluorophenyl)-1-methylethyl]-6-methoxy-5-(4-methyl-1H-imidazol-1-yl)pyridine-2-carboxamide]
0.726	COc1nc(C(=O)NCC2CCCC2)ccc1-n1cnc(C)c1 [Example 33, N-(cyclopentylmethyl)-6-methoxy-5-(4-methyl-1H-imidazol-1-yl)pyridine-2-carboxamide]
1.37	Cc1cn(-c2ncc(C(=O)NCC3(c4ccc(Cl)cc4)CC3)cc2Cl)cn1 [Example 34, 5-chloro-N-{[1-(4-chlorophenyl)cyclopropyl]methyl}-6-(4-methyl-1H-imidazol-1-yl)nicotinamide]
5.77	Cc1cn(-c2ncc(C(=O)NCC3(c4ccc(F)cc4)CC3)cc2Cl)cn1 [Example 35, 5-chloro-N-{[1-(4-fluorophenyl)cyclopropyl]-methyl}-6-(4-methyl-1H-imidazol-1-yl)nicotinamide]
0.207	COc1nc(C(=O)N2CC[C@H](Oc3ccccc3C(F)(F)F)C2)ccc1-n1cnc(C)c1 [Example 36, 2-methoxy-3-(4-methyl-1H-imidazol-1-yl)-6-({(3S)-3-[2-(trifluoromethyl)-phenoxy]pyrrolidin-1-yl}carbonyl)pyridine]
0.285	COc1nc(C(=O)N2CC[C@@H](Oc3ccccc3C(F)(F)F)C2)ccc1-n1cnc(C)c1 [Example 37, 2-methoxy-3-(4-methyl-1H-imidazol-1-yl)-6-({(3R)-3-[2-(trifluoromethyl)-phenoxy]pyrrolidin-1-yl}carbonyl)pyridine]
0.667	COc1nc(C(=O)NCc2cc(C)ccc2C)ccc1-n1cnc(C)c1 [Example 38, N-(2,5-dimethylbenzyl)-6-methoxy-5-(4-methyl-1H-imidazol-1-yl)pyridine-2-carboxamide]
1.34	COc1nc(C(=O)N[C@@H]2CCc3ccc(Cl)cc32)ccc1-n1cnc(C)c1 [Example 39, N-[(1R)-6-chloro-2,3-dihydro-1H-inden-1-yl]-6-methoxy-5-(4-methyl-1H-imidazol-1-yl)pyridine-2-carboxamide]
0.259	COc1nc(C(=O)N[C@H]2CCc3ccc(Cl)cc32)ccc1-n1cnc(C)c1 [Example 40, N-[(1S)-6-chloro-2,3-dihydro-1H-inden-1-yl]-6-methoxy-5-(4-methyl-1H-imidazol-1-yl)pyridine-2-carboxamide]
0.332	COc1nc(C(=O)NCc2cccc(Cl)c2C)ccc1-n1cnc(C)c1 [Example 41, N-(3-chloro-2-methylbenzyl)-6-methoxy-5-(4-methyl-1H-imidazol-1-yl)pyridine-2-carboxamide]
0.319	COc1nc(C(=O)NCc2ccc(F)c(C3CC3)c2)ccc1-n1cnc(C)c1 [Example 42, N-(3-cyclopropyl-4-fluorobenzyl)-6-methoxy-5-(4-methyl-1H-imidazol-1-yl)pyridine-2-carboxamide]
0.216	COc1nc(C(=O)NCc2cc(Cl)cc(Cl)c2)ccc1-n1cnc(C)c1 [Example 43, N-(3,5-dichlorobenzyl)-6-methoxy-5-(4-methyl-1H-imidazol-1-yl)pyridine-2-carboxamide]
0.394	COc1nc(C(=O)NCc2ccc(Cl)cc2Cl)ccc1-n1cnc(C)c1 [Example 44, N-(2,4-dichlorobenzyl)-6-methoxy-5-(4-methyl-1H-imidazol-1-yl)pyridine-2-carboxamide]
2.23	COc1cc(C(=O)NCC2(c3ccc(F)cc3)CC2)cnc1-n1cnc(C)c1 [Example 45, N-{[1-(4-fluorophenyl)-cyclopropyl]methyl}-5-methoxy-6-(4-methyl-1H-imidazol-1-yl)nicotinamide]
2.3	COc1cc(C(=O)N2CC[C@@H](Oc3ccccc3C(F)(F)F)C2)cnc1-n1cnc(C)c1 [Example 46, 3-methoxy-2-(4-methyl-1H-imidazol-1-yl)-5-({(3R)-3-[2-(trifluoromethyl)-phenoxy]pyrrolidin-1-yl}carbonyl)pyridine]
3.44	COc1cc(C(=O)N2CC[C@H](Oc3ccccc3C(F)(F)F)C2)cnc1-n1cnc(C)c1 [Example 47, 3-methoxy-2-(4-methyl-1H-imidazol-1-yl)-5-({(3S)-3-[2-(trifluoromethyl)-phenoxy]pyrrolidin-1-yl}carbonyl)pyridine]
